The record followed here is patent US11155557B2, “Pyrazolopyrimidine compounds and methods of use thereof” (Genentech, Inc., priority 2016, dated 2021).

Structures are written as SMILES. Where two headings read alike, the source gives them in different places.

Assay [1] concerns the target isolated recombinant JAK2 kinase domain (Homo sapiens (Human), UniProt O60674). As to the kind of experiment: JAK2 enzyme assay (Caliper LabChip, Ki). As to conditions: read-out: JAK2 Ki.
Assay [2] concerns the target isolated recombinant JAK1 kinase domain (Homo sapiens (Human), UniProt P23458). As to the kind of experiment: JAK1 enzyme assay (Caliper LabChip, Ki). The class given is biochemical. On the procedure: The activity of the isolated recombinant JAK1 and JAK2 kinase domain was measured by monitoring phosphorylation of a peptide derived from JAK3 ([…] fluorescently labeled on the N-terminus with 5-carboxyfluorescein) using the Caliper LabChip R technology (Caliper Life Sciences, Hopkinton, Mass.).

Assay [3] has as its system JAK1-dependent STAT6 phosphorylation in BEAS-2B human bronchial epithelial cells. The assay is described as follows: JAK1 pathway assay: IL-13 stimulated STAT6 phosphorylation in BEAS-2B cells. The class given is cell-based. As to conditions: BEAS-2B cells, IL-13 stimulation, read-out: IL-13 p-STAT6 BEAS-2B IC50. The method, then: JAK1 Pathway Assay in Cell Lines was Carried Out as Follows:
Inhibitor potency (EC50) was determined in cell-based assays designed to measure JAK1 dependent STAT phosphorylation.
In one assay approach, TF-1 human erythroleukemia cells obtained from the American Type Culture Collection (ATCC; Manassas, Va.) were used to measure JAK1-dependent STAT6 phosphorylation downstream of IL-13 stimulation. Prior to use in the assays, TF-1 cells were starved of GM-CSF overnight in OptiMEM medium (Life Technologies, Grand Island, N.Y.) supplemented with 0.5% charcoal/dextran stripped fetal bovine serum (FBS), 0.1 mM non-essential amino acids (NEAA), and 1 mM sodium pyruvate. The assays were run in 384-well plates in serum-free OptiMEM medium using 300,000 cells per well. In a second assay approach, BEAS-2B human bronchial epithelial cells obtained from ATCC were plated at 100,000 cells per well of a 96-well plate one day prior to the experiment. The BEAS-2B assay was run in complete growth medium (bronchial epithelial basal medium plus bulletkit; Lonza; Basel, Switzerland).
Test compounds were serially diluted 1:2 in DMSO and then diluted 1:50 in medium just before use. Diluted compounds were added to the cells, for a final DMSO concentration of 0.2%, and incubated for 30 min (for the TF-1 assay) or 1 hr (for the BEAS-2B assay) at 37° C. Then, cells were stimulated with human recombinant cytokine at their respective EC90 concentrations, as previously determined for each individual lot. Cells were stimulated with IL-13 (R&D Systems, Minneapolis, Minn.) for 15 min at 37° C. […] The resultant samples were frozen in the plates at −80° C. Compound mediated inhibition of STAT6 phosphorylation was measured in the cell lysates using MesoScale Discovery (MSD) technology (Gaithersburg, Md.).

isolated recombinant JAK2 kinase domain, sequence (O60674 849-1124): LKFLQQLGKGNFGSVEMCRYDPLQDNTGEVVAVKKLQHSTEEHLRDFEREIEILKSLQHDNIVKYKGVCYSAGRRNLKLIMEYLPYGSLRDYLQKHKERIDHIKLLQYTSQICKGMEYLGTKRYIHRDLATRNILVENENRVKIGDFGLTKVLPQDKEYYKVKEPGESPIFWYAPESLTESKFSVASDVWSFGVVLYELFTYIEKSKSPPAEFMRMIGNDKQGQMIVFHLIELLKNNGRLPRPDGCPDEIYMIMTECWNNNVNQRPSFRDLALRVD
isolated recombinant JAK1 kinase domain, sequence (P23458 875-1153): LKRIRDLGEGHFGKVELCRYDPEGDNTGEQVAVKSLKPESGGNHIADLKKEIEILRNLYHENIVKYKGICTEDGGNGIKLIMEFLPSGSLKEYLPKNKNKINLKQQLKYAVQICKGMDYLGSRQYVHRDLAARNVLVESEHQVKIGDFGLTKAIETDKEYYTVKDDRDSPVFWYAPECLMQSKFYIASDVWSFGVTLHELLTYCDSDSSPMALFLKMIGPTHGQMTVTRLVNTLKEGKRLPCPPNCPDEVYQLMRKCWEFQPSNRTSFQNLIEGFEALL

Turning to `CC1CNc2cc(OC(F)F)c(-c3nn(CCN)cc3NC(=O)c3cnn4cccnc34)cc2S1` (racemic) [Example 80, N-[1-(2-aminoethyl)-3-[6-(difluoromethoxy)-2-methyl-3,4-dihydro-2H-1,4-benzothiazin-7-yl]pyrazol-4-yl]pyrazolo[1,5-a]pyrimidine-3-carboxamide], the inhibition constant (Ki) (usually the equilibrium dissociation constant of an inhibitor or competing ligand from its target) in assay [1] was 0.17 nM; in assay [2], 0.16 nM. Further, the half-maximal inhibitory concentration (IC50) (usually the concentration at which inhibition is half-maximal) in assay [3] (Homo sapiens, BEAS-2B) stood at 13 nM.
For `CC1CNc2cc(OC(F)F)c(-c3n[nH]cc3NC(=O)c3cnn4cccnc34)cc2S1` (single isomer, unassigned) [Example 93, N-[3-[6-(difluoromethoxy)-2-methyl-3,4-dihydro-2H-1,4-benzothiazin-7-yl]-1H-pyrazol-4-yl]pyrazolo[1,5-a]pyrimidine-3-carboxamide], the Ki in assay [1] was 0.03 nM; in assay [2], 0.07 nM. Also, in assay [3] (Homo sapiens, BEAS-2B), the 50% inhibitory concentration (IC50) was found to be 6 nM.
The like results for `CC1Sc2cc(-c3n[nH]cc3NC(=O)c3cnn4cccnc34)c(OC(F)F)cc2NC1=O` (single isomer, unassigned) [Example 95, N-[3-[6-(difluoromethoxy)-2-methyl-3-oxo-4H-1,4-benzothiazin-7-yl]-1H-pyrazol-4-yl]pyrazolo[1,5-a]pyrimidine-3-carboxamide] were, in that order, 0.03 nM, 0.06 nM and 60 nM.
On to `CC1Sc2cc(-c3n[nH]cc3NC(=O)c3cnn4cccnc34)c(OC(F)F)cc2NC1=O` (single isomer, unassigned) [Example 96, N-[3-[6-(difluoromethoxy)-2-methyl-3-oxo-4H-1,4-benzothiazin-7-yl]-1H-pyrazol-4-yl]pyrazolo[1,5-a]pyrimidine-3-carboxamide], for which the inhibition constant (Ki) came out at 0.05 nM in assay [1] and 0.07 nM in assay [2]. In assay [3], the IC50 worked out at 70 nM.
On to `CC1Sc2cc(-c3nn(C)cc3NC(=O)c3cnn4cccnc34)c(OC(F)F)cc2NC1=O` (single isomer, unassigned) [Example 97, N-[3-[6-(difluoromethoxy)-2-methyl-3-oxo-4H-1,4-benzothiazin-7-yl]-1-methyl-pyrazol-4-yl]pyrazolo[1,5-a]pyrimidine-3-carboxamide], for which the Ki turned out to be 0.09 nM in assay [1] and 0.13 nM in assay [2]. Moreover, in assay [3] (Homo sapiens, BEAS-2B), the concentration for half-maximal inhibition (IC50) worked out at 7 nM.
With `CC1Sc2cc(-c3nn(C)cc3NC(=O)c3cnn4cccnc34)c(OC(F)F)cc2NC1=O` (single isomer, unassigned) [Example 98, N-[3-[6-(difluoromethoxy)-2-methyl-3-oxo-4H-1,4-benzothiazin-7-yl]-1-methyl-pyrazol-4-yl]pyrazolo[1,5-a]pyrimidine-3-carboxamide], the inhibition constant Ki in assay [1] amounted to 0.07 nM; in assay [2] it was 0.11 nM. For the same compound, in assay [3], the IC50 worked out at 6 nM.
Take `CC1CNc2cc(OC(F)F)c(-c3nn(CC(=O)N4CCCCC4)cc3NC(=O)c3cnn4cccnc34)cc2S1` (single isomer, unassigned) [Example 101, N-[3-[6-(difluoromethoxy)-2-methyl-3,4-dihydro-2H-1,4-benzothiazin-7-yl]-1-[2-oxo-2-(1-piperidyl)ethyl]pyrazol-4-yl]pyrazolo[1,5-a]pyrimidine-3-carboxamide]: the Ki is 0.16 nM in assay [1] and 0.23 nM in assay [2]. The 50% inhibitory concentration (IC50) in assay [3] (Homo sapiens, BEAS-2B) amounted to 13 nM.
On to `CC1CNc2cc(OC(F)F)c(-c3nn(CC(=O)N4CCCCC4)cc3NC(=O)c3cnn4cccnc34)cc2S1` (single isomer, unassigned) [Example 102, N-[3-[6-(difluoromethoxy)-2-methyl-3,4-dihydro-2H-1,4-benzothiazin-7-yl]-1-[2-oxo-2-(1-piperidyl)ethyl]pyrazol-4-yl]pyrazolo[1,5-a]pyrimidine-3-carboxamide], for which the figures for the Ki in assay [1] and in assay [2] were 0.19 nM and 0.2 nM, respectively. Moreover, the concentration for half-maximal inhibition (IC50) in assay [3] was 12 nM.
For the compound `CC1CNc2cc(OC(F)F)c(-c3nn(CC(=O)N4CC=CCC4)cc3NC(=O)c3cnn4cccnc34)cc2S1` (single isomer, unassigned) [Example 103, N-[3-[6-(difluoromethoxy)-2-methyl-3,4-dihydro-2H-1,4-benzothiazin-7-yl]-1-[2-(3,6-dihydro-2H-pyridin-1-yl)-2-oxo-ethyl]pyrazol-4-yl]pyrazolo[1,5-a]pyrimidine-3-carboxamide], the Ki in assay [1] was found to be 0.14 nM; in assay [2] it was 0.2 nM. Also, the IC50 in assay [3] (Homo sapiens, BEAS-2B) came to 12 nM.
On to `CC1CNc2cc(OC(F)F)c(-c3nn(CC(=O)N4CC=CCC4)cc3NC(=O)c3cnn4cccnc34)cc2S1` (single isomer, unassigned) [Example 104, N-[3-[6-(difluoromethoxy)-2-methyl-3,4-dihydro-2H-1,4-benzothiazin-7-yl]-1-[2-(3,6-dihydro-2H-pyridin-1-yl)-2-oxo-ethyl]pyrazol-4-yl]pyrazolo[1,5-a]pyrimidine-3-carboxamide], for which the Ki in assay [1] is 0.16 nM; in assay [2], 0.15 nM. The IC50 in assay [3] stood at 11 nM.
In the case of `CC1CNc2cc(OC(F)F)c(-c3nn(CC(=O)N(C)C)cc3NC(=O)c3cnn4cccnc34)cc2S1` (single isomer, unassigned) [Example 105, N-[3-[6-(difluoromethoxy)-2-methyl-3,4-dihydro-2H-1,4-benzothiazin-7-yl]-1-[2-(dimethylamino)-2-oxo-ethyl]pyrazol-4-yl]pyrazolo[1,5-a]pyrimidine-3-carboxamide], the inhibition constant Ki amounted to 0.13 nM in assay [1] and 0.19 nM in assay [2]. For the same compound, the IC50 in assay [3] (Homo sapiens, BEAS-2B) is 24 nM.
Take `CC1CNc2cc(OC(F)F)c(-c3nn(CC(=O)N(C)C)cc3NC(=O)c3cnn4cccnc34)cc2S1` (single isomer, unassigned) [Example 106, N-[3-[6-(difluoromethoxy)-2-methyl-3,4-dihydro-2H-1,4-benzothiazin-7-yl]-1-[2-(dimethylamino)-2-oxo-ethyl]pyrazol-4-yl]pyrazolo[1,5-a]pyrimidine-3-carboxamide]: the Ki in assay [1] turned out to be 0.19 nM; in assay [2], 0.17 nM. In addition, in assay [3], the half-maximal inhibitory concentration (IC50) amounted to 27 nM.
With `CC1CSc2cc(-c3nn(CC(=O)N4CCCCC4)cc3NC(=O)c3cnn4cccnc34)c(OC(F)F)cc2N1` (single isomer, unassigned) [Example 107, N-[3-[6-(difluoromethoxy)-3-methyl-3,4-dihydro-2H-1,4-benzothiazin-7-yl]-1-[2-oxo-2-(1-piperidyl)ethyl]pyrazol-4-yl]pyrazolo[1,5-a]pyrimidine-3-carboxamide], the Ki in assay [1] was 0.23 nM; in assay [2], 0.2 nM. The IC50 in assay [3] (Homo sapiens, BEAS-2B) was 11 nM.
As for `CC1CSc2cc(-c3nn(CC(=O)N4CCCCC4)cc3NC(=O)c3cnn4cccnc34)c(OC(F)F)cc2N1` (single isomer, unassigned) [Example 108, N-[3-[6-(difluoromethoxy)-3-methyl-3,4-dihydro-2H-1,4-benzothiazin-7-yl]-1-[2-oxo-2-(1-piperidyl)ethyl]pyrazol-4-yl]pyrazolo[1,5-a]pyrimidine-3-carboxamide], the Ki in assay [1] is 0.23 nM; in assay [2], 0.19 nM. Besides, in assay [3], the 50% inhibitory concentration (IC50) turned out to be 12 nM.
`CC1CSc2cc(-c3nn(CC(=O)N4CC=CCC4)cc3NC(=O)c3cnn4cccnc34)c(OC(F)F)cc2N1` (single isomer, unassigned) [Example 111, N-[3-[6-(difluoromethoxy)-3-methyl-3,4-dihydro-2H-1,4-benzothiazin-7-yl]-1-[2-(3,6-dihydro-2H-pyridin-1-yl)-2-oxo-ethyl]pyrazol-4-yl]pyrazolo[1,5-a]pyrimidine-3-carboxamide]: the inhibition constant (Ki) came to 0.21 nM in assay [1] and 0.2 nM in assay [2]. The concentration for half-maximal inhibition (IC50) in assay [3] (Homo sapiens, BEAS-2B) was 15 nM.
On to `CC1CSc2cc(-c3nn(CC(=O)N4CC=CCC4)cc3NC(=O)c3cnn4cccnc34)c(OC(F)F)cc2N1` (single isomer, unassigned) [Example 112, N-[3-[6-(difluoromethoxy)-3-methyl-3,4-dihydro-2H-1,4-benzothiazin-7-yl]-1-[2-(3,6-dihydro-2H-pyridin-1-yl)-2-oxo-ethyl]pyrazol-4-yl]pyrazolo[1,5-a]pyrimidine-3-carboxamide], for which the Ki in assay [1] came out at 0.18 nM; in assay [2] it was 0.15 nM. The concentration for half-maximal inhibition (IC50) in assay [3] was 10 nM.
As to `CC1CSc2cc(-c3nn(CC(=O)N(C)C)cc3NC(=O)c3cnn4cccnc34)c(OC(F)F)cc2N1` (single isomer, unassigned) [Example 113, N-[3-[6-(difluoromethoxy)-3-methyl-3,4-dihydro-2H-1,4-benzothiazin-7-yl]-1-[2-(dimethylamino)-2-oxo-ethyl]pyrazol-4-yl]pyrazolo[1,5-a]pyrimidine-3-carboxamide], the Ki in assay [1] turned out to be 0.27 nM; in assay [2] it was 0.22 nM. The IC50 in assay [3] (Homo sapiens, BEAS-2B) is 22 nM.
